Experiments:
[1] = test system: SN45 TCR; assay: Biolayer interferometry of SN45 TCR with lipopeptide-bound MHC class I complexes; type: binding, rhesus monkey
Text: Cell-based analyses may be influenced by undefined factors related to the use of live cells and serum components. Therefore, we first sought to validate the separation of the two groups at the molecular level. To this end, we investigated the kinetics of TCR–lipopeptide interactions in biolayer interferometry experiments. […] All refolded complexes were purified by size-exclusion and anion-exchange chromatography, and nearly identical elution profiles were obtained for each lipopeptide sample. […]
Figure 1 Biolayer interferometry analysis of interactions between the SN45 TCR and lipopeptide-bound Mamu-B∗05104 complexes. The molecular interaction kinetics of SN45 TCR and lipopeptide-bound Mamu-B∗05104 complexes were assessed using the Octet RED96 system, in which biotinylated SN45 TCR proteins were immobilized on streptavidin-coated sensors, and serially diluted Mamu-B∗05104 complexes were applied as analytes. […]
Biomolecular interaction analyses were performed using the Octet RED96 system equipped with a streptavidin-conjugated biosensor (Sartorius), according to the manufacturer’s instructions. […] A shift in the interference pattern was monitored in real time during this period. […]

[2] = test system: J.RT3/SN45 (SN45 TCR-reconstituted Jurkat T-cell line); details: J.RT3/SN45 responder T cells; cited from earlier work
Text: J.RT3, a TCR-deficient Jurkat cell line, was transfected with SN45-derived TCRα and TCRβ complementary DNAs in a previous study. The SN45 TCR-reconstituted T-cell line (J.RT3/SN45) was used as responder T cells to compare antigenic activities among C14nef4-related analogs.

Substance	antigenic group by biolayer interferometry (highly / poorly antigenic) ([1]; lipopeptide-bound Mamu-B∗05104 complex as analyte on immobilized SN45 TCR)	antigenic activity group (highly / poorly antigenic) [2]	binding to the SN45 TCR ([1]; C14nef5-bound Mamu-B∗098 complex as analyte, negative control)
C14-Gly1-Gly2-Ala3-Ile4 [C14nef4]	highly antigenic	highly antigenic	
C14-Gly1-Gly2-Ala3-Ile4-Ser5 [C14nef5, reference compound]			failed to bind
